Tests used:
[1] = Hydroxyl Radical Absorbance Capacity (HORAC) assay; assay type: biochemical; settings: in tubo, Gallic Acid standard
Procedure: (§1) In tubo antioxidant testing was carried out to determine the antioxidant profile of antioxidants that boost UVA photo-protection.
The HORAC assay is another common method to examine antioxidant activity. It is specific for hydroxyl radicals. The Varioskan Flash is employed for the quantification of the capacity of an antioxidant to avert the hydroxyl radical. The hydroxyl radical, generated from hydrogen peroxide and Cobalt (II) fluoride, will quench a fluorescent probe by a hydrogen atom transfer reaction. In the presence of an antioxidant, however, the molecule will chelate the Co(II), preventing the generation of the hydroxyl radical and initially block or prevent the quenching of the probe, causing a delay in the fluorescence decay profile. The area under the fluorescence decay curves for samples with and without the presence of an antioxidant molecule are compared to that of a standard reference material and the hydroxyl radical averting capacity is determined. By quantifying the decay of fluorescence using a fluorometer, the degree of protection is determined by comparison with a standard control antioxidant Gallic Acid (standard reference material). The result is expressed in μmol equivalent of Gallic Acid per gram of sample (i.e., μmol GAE/g). Equipment that can automatically measure and calculate the capacity is commercially available, such as the VarioSkan flash microplate reader from Thermo Scientific. To test samples by using HORAC, compounds are dissolved into water-based NaH2PO4 buffer.

[2] = Superoxide Radical Absorbance Capacity (SORAC) assay; assay type: biochemical; design: key: None: No detectable value; settings: in tubo, WST-1 probe
Procedure: as §1
The Superoxide Radical Absorbance Capacity (SORAC) assay is an in tubo method to determine the relative capacity of an antioxidant to dismutate the superoxide anion. The Varioskan Flash is employed to measure the superoxide dismutase-catalyzed dismutation of the superoxide anion in the presence of the absorbance probe, water-soluble tetrazolium salt (WST-1). WST-Formazan is produced when WST-1 is […] by superoxide anion that is generated by the mixture of xanthine and xanthine oxidase. One unit of SOD activity is defined as the quantity of antioxidant to obtain 50% inhibition of the rate of reduction of WST-1. The final SORAC value is expressed as one unit of SOD activity per milligram of dry weight of antioxidant material at 50% inhibition (Unit/mg).

[3] = Oxygen Radical Absorbance Capacity (ORAC) assay; assay type: biochemical; settings: in tubo, Trolox standard
Procedure: as §1
The Oxygen Radical Absorbance Capacity (ORAC) assay is one of most commonly used methods to evaluate the capacity of antioxidants against ROS (reactive oxygen species), specific for peroxyl which is one of the most important free radicals present in the human skin environment. The ORAC assay measures the oxidative degradation of the fluorescent probe (fluorescein) after being mixed with free radical generators such as azo-initiator compounds (2,2′-Azobis(2-amidinopropane) dihydrochloride, AAPH). Azo-initiators produce the peroxyl radical by heating, which damages the fluorescent molecule, resulting in the loss of fluorescence. Antioxidants protect the fluorescent molecule from the oxidative degeneration. By quantifying the decay of fluorescence using a fluorometer, the degree of protection is determined comparing with a standard control antioxidant Trolox. The result is expressed in mol equivalent of Trolox per gram of sample (i.e., μmol TE/g). Equipment that can automatically measure and calculate the capacity is commercially available, such as the VarioSkan flash microplate reader from Thermo Scientific. To test samples for ORAC, compounds are dissolved into water-based NaH2PO4 buffer.

[4] = In vivo PPD: UVPPD PF according to ISO 24442; settings: conclusion in words from PPD data of Examples 2 and 3
Procedure: To characterize protection from UVA radiation, the PPD (Persistent Pigment Darkening) method, which measures the color of the skin observed 2 to 4 hours after exposure of the skin to UVA radiation, is used. This method was adopted in 1996 by the Japanese Cosmetic Industry Association (JCIA) as the official test procedure for the UVA labelling of products and is commonly used in industry, especially in Europe and the United States. See JAPAN COSMETIC […] ASSOCIATION TECHNICAL BULLETIN, Measurement Standards for UVA Protection Efficacy. Issued Nov. 21, 1995 and effective of Jan. 1, 1996), which is incorporated herein by reference in its entirety. […]
The degree of UVA protection provided by each of the formulations was determined in terms of UVPPD PF. […]
The UVPPD PF for each of sunscreen formulations A, B, and C was determined according to ISO 24442, which was adopted by the Japan Cosmetic Industry Association in 2012 for characterization of UVA protection and is incorporated herein by reference in its entirety. […] UVA radiation can be monitored continuously during exposure using a Model DCS-1 Sunburn UV Meter/Dose Controller System (Solar Light Co.), formerly known as the Robertson-Berger Sunburn meter (R-B meter). […] The MPPD of unprotected skin is determined under standardized lighting conditions 2 to 4 hours after exposures. […]

Structure (SMILES)	HORAC-hydroxyl [1]	SORAC-superoxide [2]	ORAC-peroxyl [3]	boosting effect on UVA photo-protection [4]
COc1cc(/C=C/C(=O)O)ccc1O [Ferulic acid]	Strong (>10000)	Weak (<200)	Strong (>10000)	
OC[C@H]1O[C@@H](Oc2cc(O)cc(/C=C/c3ccc(O)cc3)c2)[C@H](O)[C@@H](O)[C@@H]1O [Polydatin]	Strong (>10000)	None	Strong (>10000)	
O=C(CCc1ccc(O)cc1)c1c(O)cc(O)cc1O [Phloretin]	Medium (2600-10000)	None	Strong (>10000)	
O=C(O)[C@H]1O[C@@H](Oc2cc3oc(-c4ccccc4)cc(=O)c3c(O)c2O)[C@H](O)[C@@H](O)[C@@H]1O [Baicalin, reference compound]	Weak (<2600)	Medium (200-1000)	Medium (4500-10000)	did not boost UVA photo-protection
